In US20150105252A1, “SUBSTITUTED PYRAZOLES AS HERBICIDES” (E I DU PONT DE NEMOURS AND COMPANY, priority 2013, published 2015):

Tests used:
velvetleaf = assay: Test F preemergence; assay type: in vivo, Abutilon theophrasti
Source text: (§1) Seeds of plant species selected from corn (Zea mays), soybean (Glycine max), velvetleaf (Abutilon theophrasti), lambsquarters (Chenopodium album), wild poinsettia (Euphorbia heterophylla), pigweed, palmer (palmer pigweed, Amaranthus palmeri), common waterhemp (Amaranthus rudis), surinam grass (Brachiaria decumbens), large crabgrass (Digitaria sanguinalis), crabgrass, Brazil (Brazilian crabgrass, Digitaria horizontalis), fall panicum (Panicum dichotomiflorum), giant foxtail (Setaria faberii), green foxtail (Setaria viridis), goosegrass (Eleusine indica), johnsongrass (Sorghum halepense), common ragweed (Ambrosia elation), barnyardgrass (Echinochloa crus-galli), southern sandbur (Cenchrus echinatus), arrowleaf sida (Sida rhombifolia), Italian ryegrass (Lolium multiflorum), dayflower, VA (Virginia (VA) dayflower, Commelina virginica), field bindweed (Convolvulus arvensis), cocklebur (common cocklebur, Xanthium strumarium), morningglory (Ipomoea coccinea), nightshade (eastern black nightshade, Solanum ptycanthum), kochia (Kochia scoparia), yellow nutsedge (Cyperus esculentus), and hairy beggarticks (Bidens pilosa), were planted into a silt loam soil and treated preemergence with test chemicals formulated in a non-phytotoxic solvent mixture which included a surfactant.
(§2) At the same time, plants from these crop and weed species and also horseweed (Canada horseweed, Conyza canadensis), smartweed (ladysthumb smartweed, Polygonum persicaria), waterhemp_RES1, (ALS & Triazine resistant common waterhemp, Amaranthus rudis), and waterhemp_RES2, (ALS & HPPD resistant common waterhemp, Amaranthus rudis) were treated with postemergence applications of test chemicals formulated in the same manner. Plants ranged in height from 2 to 18 cm for postemergence treatments (1- to 4-leaf stage). Treated plants and controls were maintained in a greenhouse for 14 to 21 days, after which time all species were compared to controls and visually evaluated. Plant response ratings, summarized in Table F, are based on a scale of 0 to 100 where 0 is no effect and 100 is complete control. A dash (-) response means no test result.

large crabgrass = assay: Test F preemergence; assay type: in vivo, Digitaria sanguinalis
Source text: as §1, §2

johnsongrass = assay: Test F preemergence; assay type: in vivo, Sorghum halepense
Source text: as §1, §2

rice = assay: Test C flooded paddy test; assay type: in vivo, Oryza sativa; conditions: Flood
Procedure, shortened: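 Test compounds are applied straight into paddy water held 3 cm above the soil surface, with that flood maintained for the whole test. After 13 to 15 days in the greenhouse, each species is scored visually relative to controls.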

[1] = Preemergence, 31 g ai/ha, scale 0 to 100
[2] = Preemergence, 62 g ai/ha, scale 0 to 100
[3] = Preemergence, 125 g ai/ha, scale 0 to 100
[4] = preemergence, 8 g ai/ha, scale 0 to 100, 100 is complete control
[5] = preemergence, 16 g ai/ha, scale 0 to 100, 100 is complete control
[6] = 31 g ai/ha, scale 0 to 100 (0 no effect, 100 complete control)
[7] = 62 g ai/ha, scale 0 to 100 (0 no effect, 100 complete control)
[8] = 125 g ai/ha, scale 0 to 100 (0 no effect, 100 complete control)
[9] = preemergence, scale 0 to 100, 100 is complete control
[10] = Preemergence, 250 g ai/ha, scale 0 to 100

Structure (SMILES) | Plant response rating, Velvetleaf (velvetleaf; [2]) | Plant response rating, Velvetleaf (velvetleaf; [3]) | Plant response rating, Velvetleaf (velvetleaf; [4]) | Plant response rating, Velvetleaf (velvetleaf; [5]) | Plant response rating, Large Crabgrass (large crabgrass; [2]) | Plant response rating, Large Crabgrass (large crabgrass; [3]) | Plant response rating, Large Crabgrass (large crabgrass; [4]) | Plant response rating, Large Crabgrass (large crabgrass; [5]) | Plant response rating, Johnsongrass (johnsongrass; [2]) | Plant response rating, Johnsongrass (johnsongrass; [3]) | Plant response rating, Johnsongrass (johnsongrass; [4]) | Plant response rating, Johnsongrass (johnsongrass; [5]) | Plant response rating, Rice (rice; [6]) | Plant response rating, Rice (rice; [7]) | Plant response rating, Rice (rice; 250 g ai/ha, scale 0 to 100) | Plant response rating, Rice (rice; [8]) | Plant response rating, Velvetleaf (velvetleaf; [9]) | Plant response rating, Large Crabgrass (large crabgrass; [9]) | also measured
CCOc1cc(C(=O)NCC(F)(F)F)nn1Cc1ccnc(C(F)(F)F)c1 [Compound 104] | 95 | 100 | 0 | 0 | 100 | 100 | 70 | 90 | 75 | 100 | 15 | 35 |  |  |  |  |  |  | Plant response rating, Velvetleaf (velvetleaf; [1]): 50; Plant response rating, Large Crabgrass (large crabgrass; [1]): 100; Plant response rating, Johnsongrass (johnsongrass; [1]): 60
CCCNC(=O)c1cc(CCCl)n(Cc2ccnc(C(F)(F)F)c2)n1 [Compound 145] |  |  |  |  |  |  |  |  |  |  |  |  | 0 | 20 | 40 |  |  |  | Plant response rating, Rice (rice; 125 g ai/ha, scale 0 to 100): 25
CCNC(=O)c1cc(CCCl)n(Cc2ccnc(C(F)(F)F)c2)n1 [Compound 179] | 20 | 40 | 0 |  | 95 | 90 | 0 |  | 20 | 70 | 0 |  |  |  |  |  |  |  | Plant response rating, Velvetleaf (velvetleaf; [1]): 0; Plant response rating, Large Crabgrass (large crabgrass; [1]): 40; Plant response rating, Johnsongrass (johnsongrass; [1]): 20
CCONC(=O)c1cc(OCC)n(Cc2ccnc(C(F)(F)F)c2)n1 [Compound 195] |  |  |  |  |  |  |  |  |  |  |  |  | 0 | 0 | 20 | 0 |  |  | 
CCNC(=O)c1cc(CC)n(Cc2ccnc(C(F)(F)F)c2)n1 [Compound 196] | 20 | 35 | 0 | 0 | 100 | 100 | 35 | 35 | 35 | 80 | 0 | 0 |  |  |  |  | 0 | 95 | 
Cc1cc(C(=O)NC(C)C)nn1Cc1ccnc(C(F)(F)F)c1 [Compound 197] | 15 | 25 | 0 | 0 | 35 | 100 | 0 | 0 | 0 | 20 | 0 | 0 |  |  |  |  | 0 | 35 | 
CCc1cc(C(=O)NC2CC2)nn1Cc1ccnc(OCC(F)(F)F)c1 [Compound 200] | 20 | 80 |  | 0 | 20 | 100 |  | 0 | 20 | 70 |  | 0 | 0 | 0 | 20 | 15 | 0 | 35 | Plant response rating, Velvetleaf (velvetleaf; [10]): 85; Plant response rating, Large Crabgrass (large crabgrass; [10]): 100; Plant response rating, Johnsongrass (johnsongrass; [10]): 75
CCc1cc(C(=O)NC2CC2)nn1Cc1cc(C(F)(F)C(F)(F)F)nn1C [Compound 226] |  |  |  |  |  |  |  |  |  |  |  |  | 0 | 0 |  | 0 |  |  | 
